The text below walks through data of US9439898B2, “Methods for novel drug discovery, treatment and selective targeting for gefitinib-resistant non-small-cell lung cancer harboring T790M mutation” (Macau University of Science and Technology, priority 2014, dated 2016).

Assay [1] relates to H1650 (EGFR^Exon19 deletion). Briefly: IC50 of sanguinarine against NSCLC cell line H1650. It counts as cell-based. Particulars: Homo sapiens, NCI-H1650. From the text:
(§1) Among the five cell lines, H1975 is the most sensitive cells to sanguinarine treatment, while A549 is the most resistant one.

Assay [2] deals with HCC827(EGFR^L858R). Briefly: IC50 of sanguinarine against NSCLC cell line HCC827. It counts as cell-based. To be noted: Homo sapiens.
Description: as §1

In assay [3] the test system is H2228 (EML4-ALK). Briefly: IC50 of sanguinarine against NSCLC cell line H2228. It counts as cell-based. To be noted: Homo sapiens, NCI-H2228.
Description: as §1

Assay [4] has as its system A549 (EGFR^wild-type). Briefly: IC50 of sanguinarine against NSCLC cell line A549. It counts as cell-based. Particulars: Homo sapiens.
Description: as §1

Assay [5] relates to H1975(EGFR^L858R+T790M). Briefly: IC50 of sanguinarine against NSCLC cell line H1975. It counts as cell-based. To be noted: for IC50: Homo sapiens, NCI-H1975.
Description: as §1

Assay [6] concerns H1975. Put plainly: Blocking of sanguinarine-induced apoptosis and EGFR degradation in H1975. It counts as cell-based. Particulars: H1975, 24 hrs, flow cytometry. The source says:
The fold change of treated group is normalized to untreated group. Results are expressed as mean±S.E.M. The data represent mean±S.E.M. of three independent experiments. (n=3, ***p<0.001). In FIG. 6B, the up-regulation of NOX 3 by sanguinarine is also confirmed on protein level, which is corresponding to the degradation of EGFR. […] One of representative data is shown (n=3). FIG. 6D uses real-time PCR to detect the RNA expression level of Msr A in five NSCLC cell lines. The expression level of Msr in other 5 cell lines is normalized to that of BEAS-2B cell line. The data represent mean±S.E.M. of three independent experiments (n=3, *p<0.05, **p<0.01, ***p<0.001). The result in this example supports that NADPH oxidase and methionine sulfoxide reductase are key enzymes involved in the ROS generation induced by […] in gefitinib-resistant NSCLC. Schematic diagram of how methionine (Met) is oxidized by NADPH oxidase (ROS) and reduced by methionine sulfoxide reductase is shown in FIG. 5. FIG. 7 is a cell model further illustrating how sanguinarine and H2O2 act on the signaling pathway of inducing EGFR degradation in H1975 cells, and thereby leading to apoptosis of the cells. […]
A general note: A flow cytometer gives signals particle by particle.

The subject of assay [7] is H2228 (EML4-ALK). Particulars: cited from earlier work.
Assay [8] relates to total EGFR, EGFR (pY845) and EGFR (pY1068) in H1975 cells. Briefly: Western blot of EGFR markers in H1975 cells. To be noted: 25 μM H2O2. It counts as cell-based. The source says: (§2) FIG. 2A is a control. Among the four cell lines, only H1975 cells have additional T790M mutation on EGFR. […] Compared with sanguinarine, effect of H2O2 on suppression of these markers in H1975 cells is relatively less significant. […] The EGFR degradation is also specific in NSCLC cells having T790M mutation by using sanguinarine or H2O2.
On the technique in general: Immunoblotting shows a protein as a band on a membrane.

The test system of assay [9] is EGFR construct having double mutation (L858R and T790M) in HEK293 cells. Briefly: Western blot of total EGFR in HEK293 cells transfected with EGFR L858R+T790M double mutation. It counts as cell-based. Here is the method:
HEK293 cells are used in this example as cell model to be transfected with different constructs of EGFR (wild-type, L858R mutation, Exon 19 deletion, L858R+T790M double mutation). In FIG. 3A, 3 μM saguinarine is added into the HEK293 transfected with different EGFR constructs.

In assay [10] the test system is total EGFR, EGFR (pY845) and EGFR (pY1068) in A594 cells. Briefly: Western blot of EGFR markers in A594 cells. It counts as cell-based. To be noted: H2O2.
Description: as §2

The test system of assay [11] is short EGFR peptide containing the T790M mutation (LIMQL). Put plainly: ESI-MS of methionine oxidation in short EGFR peptide. It counts as biochemical. Particulars: 10-100 μM H2O2 for 10 min. From the text:
The methionine amino acid of a short EGFR peptide containing the T790M mutation could be easily oxidized in a dose-dependent manner under oxidative stress condition. […] A peptide equivalent to the amino acid sequence position from 788 to 792 of EGFR in wild-type (LITQL) and T790M mutant (LIMQL) of EGFR (Sequence acquired from Pubmed database; SEQ. ID. NO. 2/GenBank Accession number of amino acid is NP_005219) is synthesized and both of them are subject to mass spectrometry. In FIG. 4A, ESI-MS detects the standard peptide of LIMQL and oxidized form of the peptide (LIM(O)QL). They are used as standard of the MS pattern of the un-oxidized form of methionine (“M”) and the oxidized form methionine (“M(O)”) for the EGFR short peptide. FIG. 4B-G are ESI-MS results of oxidized methionine in peptide treated with different concentrations of H2O2: FIG. 4B is for H2O2 untreated sample; FIG. 4C is for sample treated with 10 μM H2O2 for 10 min; FIG. 4D is for sample treated with 20 μM H2O2 for 10 min; FIG. 4E is for sample treated with 40 μM H2O2 for 10 min; FIG. 4F is for sample treated with 80 μM H2O2 for 10 min; FIG. 4G is for sample treated with 100 μM H2O2 for 10 min. One of representative data is shown (n=3).

Read-outs that look alike come from different tables or passages of the source.

As to `C[n+]1cc2c3c(ccc2c2ccc4cc5c(cc4c21)OCO5)OCO3` [sanguinarine], the IC50 – broadly, the midpoint of a concentration-inhibition curve – in assay [1] (H1650, 24 hrs, read-out: IC50 value Treatment (24 hrs)) came out at 3470 ± 1310 nM; in assay [1] (H1650, 48 hrs, read-out: IC50 value Treatment (48 hrs)) it was 2640 ± 1310 nM; in [2] (HCC827, 24 hrs, read-out: IC50 value Treatment (24 hrs)), 1900 ± 248 nM; in assay [2] (HCC827, 48 hrs, read-out: IC50 value Treatment (48 hrs)) it was 1060 ± 270 nM; in assay [3] (H2228, 24 hrs, read-out: IC50 value Treatment (24 hrs)), 3730 ± 1230 nM; in assay [3] (H2228, 48 hrs, read-out: IC50 value Treatment (48 hrs)), 3080 ± 1560 nM. For the same molecule, the IC50 amounted to 5710 ± 1730 nM in assay [4] (A549, 24 hrs, read-out: IC50 value Treatment (24 hrs)); 3830 ± 1110 nM in [4] (A549, 48 hrs, read-out: IC50 value Treatment (48 hrs)); 680 ± 240 nM in assay [5] (H1975, 24 hrs, read-out: IC50 value Treatment (24 hrs)); 580 ± 140 nM in [5] (H1975, 48 hrs, read-out: IC50 value Treatment (48 hrs)). Moreover, the “IC50 value in H1975 fold lower than that of A549” value in assay [5] (H1975 vs A549) was determined as 8 fold. The “IC50 value in H1975 fold lower than that of H1650” value in [5] (H1975 vs H1650) was 5.1 fold. In assay [5] (H1975 vs H2228), the “IC50 value in H1975 fold lower than that of H2228” value is on record as 5.4 fold. Moreover, the “IC50 value in H1975 fold lower than that of HCC827” value in assay [5] (H1975 vs HCC827) was found to be 3 fold.

Take `c1ccc2c(c1)[I+]c1ccccc1-2` [DPI]: the “blocking of apoptosis and degradation of EGFR induced by sanguinarine” value in assay [6] is “blocks the apoptosis and the degradation of EGFR”.

With `COc1cc2ncnc(Nc3ccc(F)c(Cl)c3)c2cc1OCCCN1CCOCC1` [Gefitinib], the Gefitinib resistance result in assay [7] is given as “resistance”.

On to `OO` [H2O2], for which the “expression level of total EGFR and pY845 EGFR” value in [8] is recorded as “slightly reduced”. Besides, the “total EGFR level” value in assay [9] (200 μM H2O2) is “significant reduction”; in assay [9] (300 μM H2O2) it was “more significant reduction”. Further, in [10], the “level of all markers (total EGFR, pY845 EGFR, pY1068 EGFR)” value is on record as “no significant change”. The “oxidation of methionine in short EGFR peptide” value in assay [11] is “oxidized by ROS in a time- and dose-dependent manner”.
